Measurements taken from patent US20210101874A1, “MICROBIOCIDAL OXADIAZOLE DERIVATIVES” (SYNGENTA PARTICIPATIONS AG, priority 2017, published 2021).

Assays:
[1] = system: Puccinia recondita f. sp. Tritici; assay: Puccinia recondita f. sp. tritici / wheat / leaf disc preventative (brown rust); assay type: in vivo; conditions: foliar, 200 ppm in the applied formulation, wheat leaf segments cv. Kanzler, inoculated 1 day after application, compared to untreated, assessed 7 to 9 days after application, read-out: disease control
Procedure, shortened: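 Single evaluation 7–9 d after spraying: % disease control compared with untreated leaf segments. Protocol: cv. Kanzler segments, preventative spray at 200 ppm, spore inoculation at day 1, 19° C., 75% rh, 12 h light/12 h dark.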

[2] = system: Puccinia recondita f. sp. Tritici; assay: Puccinia recondita f. sp. tritici / wheat / leaf disc curative (brown rust); assay type: in vivo; conditions: foliar, 200 ppm in the applied formulation, wheat leaf segments cv. Kanzler, applied 1 day after inoculation, compared to untreated, assessed 6 to 8 days after application, read-out: disease control
Procedure: Leaf disks or leaf segments of various plant species are cut from plants grown in a greenhouse. The cut leaf disks or segments are placed in multiwell plates (24-well format) onto water agar. The leaf disks are sprayed with a test solution before (preventative) or after (curative) inoculation. Compounds to be tested are prepared as DMSO solutions (max. 10 mg/ml) which are diluted to the appropriate concentration with 0.025% Tween20 just before spraying. The inoculated leaf disks or segments are incubated under defined conditions (temperature, relative humidity, light, etc.) according to the respective test system. A single evaluation of disease level is carried out 3 to 14 days after inoculation, depending on the pathosystem. Percent disease control relative to the untreated check leaf disks or segments is then calculated.
Wheat leaf segments cv. Kanzler are placed on agar in multiwell plates (24-well format). The leaf segments are then inoculated with a spore suspension of the fungus. Plates were stored in darkness at 19° C. and 75% relative humidity. The formulated test compound diluted in water was applied 1 day after inoculation. The leaf segments were incubated at 19° C. and 75% relative humidity under a light regime of 12 hours light/12 hours darkness in a climate cabinet and the activity of a compound was assessed as percent disease control compared to untreated when an appropriate level of disease damage appears in untreated check leaf segments (6 to 8 days after application).
The following compounds at 200 ppm in the applied formulation give at least 80% disease control in this test when compared to untreated control leaf disks under the same conditions, which show extensive disease development.

[3] = system: Glomerella lagenarium (Colletotrichum lagenarium); assay: Glomerella lagenarium (Colletotrichum lagenarium) liquid culture / cucumber / preventative (anthracnose); assay type: cell-based; conditions: Colletotrichum orbiculare; 20 ppm in the applied formulation; conidia in PDB nutrient broth, 24° C.; 3 to 4 days after application; compared to untreated; read-out: disease control (inhibition of growth measured photometrically)
Procedure, shortened: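 Cryostored conidia in potato dextrose broth added to compound diluted from DMSO solution, 96-well format. Plates incubated at 24 °C. Growth inhibition read photometrically 3 to 4 days after application, as percent activity versus untreated check.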

C/C=C/S(=O)(=O)N(C)Cc1ccc(-c2noc(C(F)(F)F)n2)cc1 [Compound 1.51, (E)-N-methyl-N-[[4-(5-(trifluoromethyl)-1,2,4-oxadiazol-3-yl]phenyl]methyl] prop-1-ene-1-sulfonamide]
≥ 80%: pest or weed control at 200 ppm [1] | pest or weed control at 200 ppm [2] | inhibition at 20 ppm [3]

CN(Cc1ccc(-c2noc(C(F)(F)F)n2)cc1)S(=O)(=O)CC1CC1 [Compound 1.52, 1-cyclopropyl-N-methyl-N-[[4-[5-(trifluoromethyl)-1,2,4-oxadiazol-3-yl]phenyl]methyl] methanesulfonamide]
≥ 80%: pest or weed control at 200 ppm [1] | pest or weed control at 200 ppm [2] | inhibition at 20 ppm [3]

CNS(=O)(=O)N(C)Cc1ccc(-c2noc(C(F)(F)F)n2)cc1 [Compound 1.56, 3-[4-[[methyl (methylsulfamoyl)amino]methyl]phenyl]-5-(trifluoromethyl)-1,2,4-oxadiazole]
≥ 80%: pest or weed control at 200 ppm [1] | pest or weed control at 200 ppm [2] | inhibition at 20 ppm [3]

CCN(Cc1ccc(-c2noc(C(F)(F)F)n2)cc1)S(=O)(=O)CC(=O)OC [Compound 1.59, methyl 2-[ethyl-[[4-[5-(trifluoromethyl)-1,2,4-oxadiazol-3-yl]phenyl]methyl]sulfamoyl]acetate]
≥ 80%: pest or weed control at 200 ppm [1] | pest or weed control at 200 ppm [2] | inhibition at 20 ppm [3]

CCN(Cc1ccc(-c2noc(C(F)(F)F)n2)cc1)S(=O)(=O)CC [Compound 1.61, N-ethyl-N-[[4-[5-(trifluoromethyl)-1,2,4-oxadiazol-3-yl]phenyl]methyl] ethanesulfonamide]
≥ 80%: pest or weed control at 200 ppm [1] | pest or weed control at 200 ppm [2] | inhibition at 20 ppm [3]

CCN(Cc1ccc(-c2noc(C(F)(F)F)n2)cc1)S(C)(=O)=O [Compound 1.62, N-ethyl-N-[[4-[5-(trifluoromethyl)-1,2,4-oxadiazol-3-yl]phenyl]methyl] methanesulfonamide]
≥ 80%: pest or weed control at 200 ppm [1] | pest or weed control at 200 ppm [2] | inhibition at 20 ppm [3]

CCN(Cc1ccc(-c2noc(C(F)(F)F)n2)cc1)S(=O)(=O)NC [Compound 1.63, 3-[4-[[ethyl (methylsulfamoyl)amino]methyl]phenyl]-5-(trifluoromethyl)-1,2,4-oxadiazole]
≥ 80%: pest or weed control at 200 ppm [1] | pest or weed control at 200 ppm [2] | inhibition at 20 ppm [3]

CCN(Cc1ccc(-c2noc(C(F)(F)F)n2)cc1)S(=O)(=O)N(C)C [Compound 1.64, N-(dimethylsulfamoyl)-N-[[4-[5-(trifluoromethyl)-1,2,4-oxadiazol-3-yl]phenyl]methyl] ethanamine]
≥ 80%: pest or weed control at 200 ppm [1] | pest or weed control at 200 ppm [2] | inhibition at 20 ppm [3]

CCCN(Cc1ccc(-c2noc(C(F)(F)F)n2)cc1)S(=O)(=O)C1CC1 [Compound 1.69, N-propyl-N-[[4-[5-(trifluoromethyl)-1,2,4-oxadiazol-3-yl]phenyl]methyl] cyclopropanesulfonamide]
≥ 80%: pest or weed control at 200 ppm [1] | pest or weed control at 200 ppm [2] | inhibition at 20 ppm [3]

CCCN(Cc1ccc(-c2noc(C(F)(F)F)n2)cc1)S(=O)(=O)CCOC [Compound 1.73, 2-methoxy-N-propyl-N-[[4-[5-(trifluoromethyl)-1,2,4-oxadiazol-3-yl]phenyl]methyl] ethanesulfonamide]
≥ 80%: pest or weed control at 200 ppm [1] | pest or weed control at 200 ppm [2] | inhibition at 20 ppm [3]

CCCN(Cc1ccc(-c2noc(C(F)(F)F)n2)cc1)S(=O)(=O)CC(=O)OC [Compound 1.76, methyl 2-[propyl-[[4-[5-(trifluoromethyl)-1,2,4-oxadiazol-3-yl]phenyl]methyl]sulfamoyl]acetate]
≥ 80%: pest or weed control at 200 ppm [1] | pest or weed control at 200 ppm [2] | inhibition at 20 ppm [3]

CCCN(Cc1ccc(-c2noc(C(F)(F)F)n2)cc1)S(C)(=O)=O [Compound 1.79, N-propyl-N-[[4-[5-(trifluoromethyl)-1,2,4-oxadiazol-3-yl]phenyl]methyl] methanesulfonamide]
≥ 80%: pest or weed control at 200 ppm [1] | pest or weed control at 200 ppm [2] | inhibition at 20 ppm [3]

CC(C)N(Cc1ccc(-c2noc(C(F)(F)F)n2)cc1)S(=O)(=O)c1ccn(C)n1 [Compound 1.82, N-isopropyl-1-methyl-N-[[4-[5-(trifluoromethyl)-1,2,4-oxadiazol-3-yl]phenyl]methyl] pyrazole-3-sulfonamide]
≥ 80%: pest or weed control at 200 ppm [1] | pest or weed control at 200 ppm [2] | inhibition at 20 ppm [3]

COCCS(=O)(=O)N(Cc1ccc(-c2noc(C(F)(F)F)n2)cc1)C(C)C [Compound 1.83, N-isopropyl-2-methoxy-N-[[4-[5-(trifluoromethyl)-1,2,4-oxadiazol-3-yl]phenyl]methyl] ethanesulfonamide]
≥ 80%: pest or weed control at 200 ppm [1] | pest or weed control at 200 ppm [2] | inhibition at 20 ppm [3]

C/C=C/S(=O)(=O)N(Cc1ccc(-c2noc(C(F)(F)F)n2)cc1)C(C)C [Compound 1.84, (E)-N-isopropyl-N-[[4-[5-(trifluoromethyl)-1,2,4-oxadiazol-3-yl]phenyl]methyl] prop-1-ene-1-sulfonamide]
≥ 80%: pest or weed control at 200 ppm [1] | pest or weed control at 200 ppm [2] | inhibition at 20 ppm [3]

COC(=O)CS(=O)(=O)N(Cc1ccc(-c2noc(C(F)(F)F)n2)cc1)C(C)C [Compound 1.85, methyl 2-[isopropyl-[[4-[5-(trifluoromethyl)-1,2,4-oxadiazol-3-yl]phenyl]methyl]sulfamoyl]acetate]
≥ 80%: pest or weed control at 200 ppm [1] | pest or weed control at 200 ppm [2] | inhibition at 20 ppm [3]

CC(C)N(Cc1ccc(-c2noc(C(F)(F)F)n2)cc1)S(C)(=O)=O [Compound 1.86, N-isopropyl-N-[[4-[5-(trifluoromethyl)-1,2,4-oxadiazol-3-yl]phenyl]methyl] methanesulfonamide]
≥ 80%: pest or weed control at 200 ppm [1] | pest or weed control at 200 ppm [2] | inhibition at 20 ppm [3]

CNS(=O)(=O)N(Cc1ccc(-c2noc(C(F)(F)F)n2)cc1)C(C)C [Compound 1.87, 3-[4-[[isopropyl (methylsulfamoyl)amino]methyl]phenyl]-5-(trifluoromethyl)-1,2,4-oxadiazole]
≥ 80%: pest or weed control at 200 ppm [1] | pest or weed control at 200 ppm [2] | inhibition at 20 ppm [3]

CC(C)N(Cc1ccc(-c2noc(C(F)(F)F)n2)cc1)S(=O)(=O)C1CC1 [Compound 1.98, N-isopropyl-N-[[4-[5-(trifluoromethyl)-1,2,4-oxadiazol-3-yl]phenyl]methyl] cyclopropanesulfonamide]
≥ 80%: pest or weed control at 200 ppm [1] | pest or weed control at 200 ppm [2] | inhibition at 20 ppm [3]

CC(C)N(Cc1ccc(-c2noc(C(F)(F)F)n2)cc1)S(=O)(=O)N(C)C [Compound 1.100, N-(dimethylsulfamoyl)-N-[[4-[5-(trifluoromethyl)-1,2,4-oxadiazol-3-yl]phenyl]methyl] propan-2-amine]
≥ 80%: pest or weed control at 200 ppm [1] | pest or weed control at 200 ppm [2] | inhibition at 20 ppm [3]

CCN(Cc1ccc(-c2noc(C(F)(F)F)n2)cc1F)S(=O)(=O)N(C)C [Compound 1.105, N-(dimethylsulfamoyl)-N-[[2-fluoro-4-[5-(trifluoromethyl)-1,2,4-oxadiazol-3-yl]phenyl]methyl] ethanamine]
≥ 80%: pest or weed control at 200 ppm [1] | pest or weed control at 200 ppm [2] | inhibition at 20 ppm [3]
